Reference: patent publication US10028966B2 (Avalyn Pharma Inc., priority 2014, dated 2018)

Legend:
[1] = Pharmacokinetics and tissue distribution (lung, plasma, heart, kidney) of co-solvent formulations, intratracheal bolus aerosol; type: in vivo, Sprague-Dawley rats; conditions: pirfenidone about 4 mg/kg IT aerosol
Protocol: Selected formulations were prepared for pharmacokinetic analysis following aerosol delivery to rat lung. […] Formulations prepared for this study are outlined in Table 9. […] The sample was agitated until completely dissolved. […] Filtered samples were analyzed by HPLC.

elastase = conditions: unprocessed CF sputum directly treated; cited from earlier work
[2] = primary metabolite; cited from earlier work
cancer patients = conditions: cited from earlier work
[3] = test system: relapsed/refractory multiple myeloma; conditions: cited from earlier work
[4] = test system: EGFR mutation positive patients; conditions: cited from earlier work
PI3K = conditions: cited from earlier work
mTOR = mTOR (Homo sapiens, UniProt P42345); conditions: cited from earlier work
breast cancer stem cells = conditions: mice; cited from earlier work
p110-γ and p110-δ = conditions: inhibits all four isoforms; cited from earlier work

With `O=C(O)c1ccc(=O)n(-c2ccccc2)c1` the “5-carboxy metabolite, lung tissue, Mean” value ([1]; 0 MIN (one value for all groups)) was 0.00 μg/gram, the “5-carboxy metabolite, lung tissue, Mean” value ([1]; Group 1, 0.0333 hr) was 0.12 μg/gram and the “5-carboxy metabolite, lung tissue, Mean” value ([1]; Group 1, 0.0667 hr) was 0.13 μg/gram. The “5-carboxy metabolite, lung tissue, Mean” value ([1]; Group 1, 0.100 hr) was 0.48 μg/gram, the “5-carboxy metabolite, lung tissue, Mean” value ([1]; Group 1, 0.167 hr) was 0.49 μg/gram and the “5-carboxy metabolite, lung tissue, Mean” value ([1]; Group 1, 0.333 hr) was 0.96 μg/gram. For the same molecule, the “5-carboxy metabolite, lung tissue, Mean” value ([1]; Group 1, 0.667 hr) was 0.96 μg/gram, the “5-carboxy metabolite, lung tissue, Mean” value ([1]; Group 1, 1 hr) was 0.73 μg/gram and the “5-carboxy metabolite, lung tissue, Mean” value ([1]; Group 1, 2 hr) was 0.21 μg/gram. For the same molecule, the “5-carboxy metabolite, lung tissue, Mean” value ([1]; Group 1, 2.50 hr) was 0.10 μg/gram, the “5-carboxy metabolite, lung tissue, Mean” value ([1]; Group 1, […]) was 0.48 μg/gram and the “5-carboxy metabolite, lung tissue, Mean” value ([1]; Group 3, 0.0333 hr) was 0.05 μg/gram. For the same molecule, the “5-carboxy metabolite, lung tissue, Mean” value ([1]; Group 3, 0.0667 hr) was 0.36 μg/gram, the “5-carboxy metabolite, lung tissue, Mean” value ([1]; Group 3, 0.100 hr) was 0.55 μg/gram and the “5-carboxy metabolite, lung tissue, Mean” value ([1]; Group 3, 0.167 hr) was 0.86 μg/gram. For the same molecule, the “5-carboxy metabolite, lung tissue, Mean” value ([1]; Group 3, 0.333 hr) was 1.09 μg/gram, the “5-carboxy metabolite, lung tissue, Mean” value ([1]; Group 3, 0.667 hr) was 0.81 μg/gram and the “5-carboxy metabolite, lung tissue, Mean” value ([1]; Group 3, 1 hr) was 0.70 μg/gram. For the same molecule, the “5-carboxy metabolite, lung tissue, Mean” value ([1]; Group 3, 2 hr) was 0.32 μg/gram, the “5-carboxy metabolite, lung tissue, Mean” value ([1]; Group 3, 2.50 hr) was 0.14 μg/gram and the “5-carboxy metabolite, lung tissue, Mean” value ([1]; Group 3, […]) was 0.52 μg/gram. The “5-carboxy metabolite, lung tissue, Mean” value ([1]; Group 5, 0.0333 hr) was 0.17 μg/gram, the “5-carboxy metabolite, lung tissue, Mean” value ([1]; Group 5, 0.0667 hr) was 0.42 μg/gram and the “5-carboxy metabolite, lung tissue, Mean” value ([1]; Group 5, 0.100 hr) was 0.35 μg/gram. For the same molecule, the “5-carboxy metabolite, lung tissue, Mean” value ([1]; Group 5, 0.167 hr) was 0.53 μg/gram, the “5-carboxy metabolite, lung tissue, Mean” value ([1]; Group 5, 0.333 hr) was 1.32 μg/gram and the “5-carboxy metabolite, lung tissue, Mean” value ([1]; Group 5, 0.667 hr) was 0.96 μg/gram. The “5-carboxy metabolite, lung tissue, Mean” value ([1]; Group 5, 1 hr) was 0.75 μg/gram, the “5-carboxy metabolite, lung tissue, Mean” value ([1]; Group 5, 2 hr) was 0.18 μg/gram and the “5-carboxy metabolite, lung tissue, Mean” value ([1]; Group 5, 2.50 hr) was 0.10 μg/gram. For the same molecule, the “5-carboxy metabolite, lung tissue, Mean” value ([1]; Group 5, […]) was 0.45 μg/gram, the “5-carboxy metabolite, lung tissue, Mean” value ([1]; Group 6, 0.0333 hr) was 0.17 μg/gram and the “5-carboxy metabolite, lung tissue, Mean” value ([1]; Group 6, 0.0667 hr) was 0.43 μg/gram. For the same molecule, the “5-carboxy metabolite, lung tissue, Mean” value ([1]; Group 6, 0.100 hr) was 0.37 μg/gram, the “5-carboxy metabolite, lung tissue, Mean” value ([1]; Group 6, 0.167 hr) was 0.64 μg/gram and the “5-carboxy metabolite, lung tissue, Mean” value ([1]; Group 6, 0.333 hr) was 0.94 μg/gram. For the same molecule, the “5-carboxy metabolite, lung tissue, Mean” value ([1]; Group 6, 0.667 hr) was 0.92 μg/gram, the “5-carboxy metabolite, lung tissue, Mean” value ([1]; Group 6, 1 hr) was 0.78 μg/gram and the “5-carboxy metabolite, lung tissue, Mean” value ([1]; Group 6, 2 hr) was 0.24 μg/gram. The “5-carboxy metabolite, lung tissue, Mean” value ([1]; Group 6, 2.50 hr) was 0.14 μg/gram and the “5-carboxy metabolite, lung tissue, Mean” value ([1]; Group 6, […]) was 0.43 μg/gram.

In the case of `O=C(O)CCCC[C@@H](S)CCS` (racemic) [DHLA, dihydrolipoic acid], the “increase of sol elastase activity” value (elastase) is listed as “did not increase elastase activity”.

For `O=C(O)c1ccc(=O)n(-c2ccccc2)c1` [5-carboxy-pirfenidone], the “share of urinary excretion” value [2] is listed as 95%.

For `N#CC1(c2ccc(NC(=O)c3cccnc3NCc3ccncc3)cc2)CCCC1` [Apatinib], the complete response (cancer patients; 65 cancer patients, Phase I/II) is given as 1.54%, the partial response (cancer patients; 65 cancer patients, Phase I/II) is given as 12.31% and the progressive disease (cancer patients; 65 cancer patients, Phase I/II) is given as 20%. The stable disease (cancer patients; 65 cancer patients, Phase I/II) was 66.15% and the maximum tolerated dose (cancer patients; daily for 28 days) was 850 mg/day.

In the case of `CC(C)C[C@H](NC(=O)[C@H](Cc1ccccc1)NC(=O)c1cnccn1)B(O)O` [Bortezomib], the “patients with peripheral neuropathy” value ([3]; human, in vivo) is given as 30% and the “time to peak concentrations” value ([3]; intravenous administration) is given as “about 30 minutes”.

In the case of `C#Cc1cccc(Nc2ncnc3cc(OCCOC)c(OCCOC)cc23)c1` [Erlotinib], the response rate [4] is given as “approximately 60%”.

In the case of `CS(=O)(=O)N1CCN(Cc2cc3nc(-c4cccc5[nH]ncc45)nc(N4CCOCC4)c3s2)CC1` [GDC-0941], the IC50 (PI3K) is listed as […].

In the case of `Cc1c(CN2CCN(S(C)(=O)=O)CC2)sc2c(N3CCOCC3)nc(-c3cnc(N)nc3)nc12` [GNE-477], the IC50 (mTOR) is listed as 21 nM.

In the case of `CC[C@@H](C(=O)[C@@H](C)[C@@H](O)[C@H](C)[C@@H]1O[C@@H]([C@@H](CC)C(=O)O)CC[C@@H]1C)[C@H]1O[C@]2(C=C[C@@H](O)[C@]3(CC[C@@](C)([C@H]4CC[C@](O)(CC)[C@H](C)O4)O3)O2)[C@H](C)C[C@@H]1C` [Salinomycin], the “killing of breast cancer stem cells, times more effectively than paclitaxel” value (breast cancer stem cells) is given as “at least 100 times”.

For `Nc1nc(N)c2nc(-c3cccc(O)c3)c(-c3cccc(O)c3)nc2n1` [TG100-115], the “fold better potency against p110-γ and p110-δ” value (p110-γ and p110-δ) is listed as 5-10 fold.

For DNase, the “increase of sol elastase activity” value (elastase) is given as 190%.

B1: reduced rhTrx: stable reduced form of recombinant human thioredoxin (protein, UniProt P10599 2-105, looked up)
Thioredoxin: VKQIESKTAFQEALDAAGDKLVVVDFSATWCGPCKMIKPFFHSLSEKYSNVIFLEVDVDDCQDVASECEVKCMPTFQFFKKGQKVGEFSGANKEKLEATINELV
modifications: reduced form
In the case of B1, the “increase of sol elastase activity” value (elastase) is listed as 60%.
